Earlier results in patent US20220265666A1, “METHODS OF TREATING SUBSTANCE ABUSE DISORDER, DYSPNEA, TINNITUS, AND CHILD AND ADOLESCENT DEPRESSION” (Praxis Precision Medicines, Inc., priority 2019, published 2022).
Like-named read-outs stand apart in the source and are kept apart here.

Legend:
craving to cocaine = settings: clinical studies
symptoms of tinnitus = settings: clinical studies
[1] = tested on: patients with well controlled asthma
tinnitus behavior = settings: non-clinical models of tinnitus
[2] = second day, same patients, previous inhalation with diazepam
[3] = first day of testing, methacholine inhalation 6 mg/mL, no diazepam, 12 patients

CC(=O)[C@H]1CC[C@H]2[C@@H]3CCC4=CC(=O)CC[C@]4(C)[C@H]3CC[C@]12C [Progesterone]
effect on craving to cocaine (craving to cocaine): decrease craving to cocaine

O=C1CN=C(c2ccccc2Cl)c2cc([N+](=O)[O-])ccc2N1 [clonazepam]
effect on symptoms of tinnitus (symptoms of tinnitus): control some symptoms of tinnitus

CN1C(=O)CN=C(c2ccccc2)c2cc(Cl)ccc21 [diazepam]
effect on bronchoconstriction induced by methacholine ([1]; diazepam aerosol, 12 patients with well controlled asthma): reduced the bronchoconstriction induced by methacholine | FEV1 after methacholine inhalation [1, 2]: 2.21 L | FEV1 before methacholine inhalation [1, 2]: 2.48 L

CNC1(c2ccccc2Cl)CCCCC1=O (stereo not drawn) [ketamine]
effect on tinnitus behavior (tinnitus behavior): not those that reduce excitation (i.e., ketamine) reverse the tinnitus behavior

CC(=O)OC(C)C[N+](C)(C)C (stereo not drawn) [methacholine]
FEV1 after methacholine inhalation [1, 3]: 1.69 L | FEV1 before methacholine inhalation [1, 3]: 2.98 L

C=CC(N)CCC(=O)O (stereo not drawn) [vigabatrin]
effect on tinnitus behavior (tinnitus behavior): reverse the tinnitus behavior
